These results are taken from patent US8039603B2, “Nucleic acid and corresponding protein entitled 121P1F1 useful in treatment and detection of cancer” (Agensys, Inc., priority 2001, dated 2011).

In the test the test system is LAPC-4 cells. Briefly: Androgen regulation of 121P1F1 in vitro (Northern blot). The class given is cell-based, human. Conditions: LAPC-4 cells in charcoal-stripped medium. On the procedure: FIG. 22. Androgen regulation of 121P1F1 in vitro. […] cells were grown in charcoal-stripped medium and stimulated with the synthetic androgen mibolerone, for either 14 or 24 hours. Northern blot was performed with 10 μg of total RNA for each sample, and probed with the 121P1F1 SSH fragment. A picture of the ethidium-bromide staining of the RNA gel is also presented (lowest panel). Hybridization of the same northern blot with the androgen-dependent gene TMPRSS2 confirms the quality of the androgen deprivation.
Since 121P1F1 was derived from a […] LAPC-9 AD (28 days post-castration) subtraction, an assay was performed for androgen regulation of 121P1F1 (FIG. 22). LAPC-4 cells were grown in charcoal-stripped medium and stimulated with the synthetic androgen mibolerone, for either 14 or 24 hours. It was shown that the expression of 121P1F1 went down in absence of normal serum, and is modulated in presence of mibolerone, 24 hours after stimulation. The experimental samples were confirmed by testing for the expression of the androgen-regulated prostate cancer gene TMPRSS2.

Turning to `C[C@@H]1CC2=CC(=O)CC[C@@H]2[C@H]2CC[C@@]3(C)[C@@H](CC[C@]3(C)O)[C@@H]21` [mibolerone], where the note is “24 hours after stimulation”, the “expression of 121P1F1” value was “modulated”. Besides, for the setting “at 14 and 24 hours”, the TMPRSS2 expression entry is recorded as “induced”.
